From patent publication US20120046317A1, “NOVEL HETEROCYCLIC COMPOUNDS” (priority 2009, published 2012) come the findings set out here.

For data set [1], the system named is AGE-LDL formation (Low density lipoprotein incubated with CuCl2). Briefly: In vitro inhibition of AGE-LDL formation: LDL incubated with CuCl2, MDA-lysine adduct fluorescence. The data set is classed as biochemical. Conditions: LDL with CuCl2 at 37° C. As for the experimental part: In vitro Inhibition of AGE-LDL Formation:
Low density lipoprotein (LDL) was incubated with CuCl2 at 37° C. in phosphate buffered saline in the presence and absence of the following compounds. […] Results were expressed as % MDA-lysine adducts accumulation, considering the extent of the same formed upon incubation with CuCl2 alone as 100%.

Data set [2] relates to AGE-BSA Formation (Bovine Serum Albumin incubated with ribose). Briefly: In vitro prevention of advanced glycation endproducts (AGEs) accumulation: BSA incubated with ribose, fluorescence. Conditions: one week.
Method: A reduction in fluorescence intensity in the presence of the test compound is an indication of its ability to prevent accumulation of advanced glycation endproducts.
Bovine Serum Albumin was incubated with ribose alone as well as with ribose and different concentrations of the following compounds under aseptic conditions for one week. At the end of the incubation period fluorescence intensity of the samples was measured at excitation and emission wavelengths of 355 nm and 460 nm respectively.

Molecules are shown by their SMILES.

Consider `Cc1ccc(C(=O)CN2C=CCC(C(=O)NNS(C)(=O)=O)=C2)s1` [Compound no. 13, N′-(methylsulfonyl)-1-[2-(5-methylthiophen-2-yl)-2-oxoethyl]-1,4-dihydropyridine-3-carbohydrazide], for which the “% Inhibition of AGE-LDL-formation” value in data set [1] (Conc. 250 uM) is “++++ (++++ indicate >30%)”. For the same compound, the “% Inhibition of AGE-BSA Formation” value in data set [2] (Conc. 1 mM) is recorded as “+++ (+++ indicate 21-30%)”.
Turning to `COc1ccc(C(=O)CN2CCC=C(C(=O)NNS(C)(=O)=O)C2)cc1` [compound 172, 1-[2-(4-methoxyphenyl)-2-oxoethyl]-N′-(methylsulfonyl)-1,2,5,6-tetrahydropyridine-3-carbohydrazide], the “% Inhibition of AGE-LDL-formation” value in data set [1] (Conc. 50 uM) is reported as “+ (+ indicate 0-10%)”. For the same compound, the “% Inhibition of AGE-BSA Formation” value in data set [2] (Conc. 50 uM) is recorded as “+ (+ indicate 0-10%)”.
With `CC(C)(C)c1ccc(S(=O)(=O)NNC(=O)C2CCCN(CC(=O)c3cccs3)C2)cc1` (stereo not shown) [compound 165, N′-[(4-tert-butylphenyl)sulfonyl]-1-[2-oxo-2-(thiophen-2-yl)ethyl]piperidine-3-carbohydrazide], in data set [1] (Conc. 100 uM), the “% Inhibition of AGE-LDL-formation” value is recorded as “+ (+ indicate 0-10%)”. For the same compound, the “% Inhibition of AGE-BSA Formation” value in data set [2] (Conc. 100 uM) is recorded as “+ (+ indicate 0-10%)”.
For the compound `Cc1ccc(S(=O)(=O)NNC(=O)C2=CN(CC(=O)Nc3ccccc3)C=CC2)cc1` [compound 145, 2-[3-({2-[(4-methylphenyl)sulfonyl]hydrazinyl}carbonyl)pyridin-1(4H)-yl]-N-phenylacetamide], the “% Inhibition of AGE-LDL-formation” value in data set [1] (Conc. 250 uM) was “+ (+ indicate 0-10%)”. Moreover, in data set [2] (Conc. 250 uM), the “% Inhibition of AGE-BSA Formation” value was “+ (+ indicate 0-10%)”.
On to `CS(=O)(=O)NNC(=O)C1=CCCN(CC(=O)c2ccc(Br)cc2)C1` [compound 167, 1-[2-(4-bromophenyl)-2-oxoethyl]-N′-(methylsulfonyl)-1,2,5,6-tetrahydropyridine-3-carbohydrazide], for which the “% Inhibition of AGE-LDL-formation” value in data set [1] (Conc. 250 uM) is “+ (+ indicate 0-10%)”. Moreover, in data set [2] (Conc. 1 mM), the “% Inhibition of AGE-BSA Formation” value is given as “+ (+ indicate 0-10%)”.
For the compound `CS(=O)(=O)NNC(=O)C1CCCN(CC(=O)c2cccs2)C1` (stereo not shown) [compound 184, N′-(methylsulfonyl)-1-[2-oxo-2-(thiophen-2-yl)ethyl]piperidine-3-carbohydrazide], the “% Inhibition of AGE-LDL-formation” value in data set [1] (Conc. 250 uM) is “+++ (+++ indicate 21-30%)”. In data set [2] (Conc. 1 mM), the “% Inhibition of AGE-BSA Formation” value is “+ (+ indicate 0-10%)”.
The like results for `CS(=O)(=O)NNC(=O)C1=CN(CC(=O)c2ccc(Cl)s2)C=CC1` [Compound no. 6, 1-[2-(5-chlorothiophen-2-yl)-2-oxoethyl]-N′-(methylsulfonyl)-1,4-dihydropyridine-3-carbohydrazide] were, in that order, “++++ (++++ indicate >30%)” and “+++ (+++ indicate 21-30%)”.
Regarding `COc1ccc(C(=O)CN2C=CCC(C(=O)NNS(C)(=O)=O)=C2)cc1` [compound 144, 1-[2-(4-methoxyphenyl)-2-oxoethyl]-N′-(methylsulfonyl)-1,4-dihydropyridine-3-carbohydrazide], in data set [1] (Conc. 250 uM), the “% Inhibition of AGE-LDL-formation” value is recorded as “++++ (++++ indicate >30%)”. In data set [2] (Conc. 1 mM), the “% Inhibition of AGE-BSA Formation” value was “+ (+ indicate 0-10%)”.
Turning to `O=C(NCCO)C1=CN(CC(=O)c2ccc(Br)cc2)C=CC1` [compound 148, 1-[2-(4-bromophenyl)-2-oxoethyl]-N-(2-hydroxyethyl)-1,4-dihydropyridine-3-carboxamide], the “% Inhibition of AGE-BSA Formation” value in data set [2] (Conc. 1 mM) is “+ (+ indicate 0-10%)”.
In the case of `CS(=O)(=O)NNC(=O)C1=CN(CC(=O)c2cccs2)CCC1` [compound 187, N′-(methylsulfonyl)-1-[2-oxo-2-(thiophen-2-yl)ethyl]-1,4,5,6-tetrahydropyridine-3-carbohydrazide], the “% Inhibition of AGE-BSA Formation” value in data set [2] (Conc. 1 mM) is listed as “+ (+ indicate 0-10%)”.
For `O=C(CN1C=CCC(C(=O)NCCOC(=O)c2ccccc2)=C1)Nc1ccccc1` [Compound no. 107, 2-[({1-[2-oxo-2-(phenylamino)ethyl]-1,4-dihydropyridin-3-yl}carbonyl)amino]ethyl benzoate], the “% Inhibition of AGE-LDL-formation” value in data set [1] (Conc. 100 uM) is given as “+ (+ indicate 0-10%)”.
